# Test system: P. aeruginosa 26
# Experiment: In vitro antibacterial activity, MIC by the two-fold agar-plate dilution method
# Format: cell-based
# Settings: Pseudomonas aeruginosa, heart infusion agar, 37° C., 20 hours, overnight culture 10^8 viable cells per ml, read-out: MIC (minimal inhibitory concentration)
# Method: Now in order to show the utility of the object compound (I), the test data on MIC (minimal inhibitory concentration) of representative compound of this invention are shown in the following.
# In vitro antibacterial activity was determined by the two-fold agar-plate dilution method as described below.
# One loopful of an overnight culture of each test strain in Trypticase-soy broth (10^8 viable cells per ml) was streaked on heart infusion agar (HI-agar)containing graded concentrations of representative test compound, and the minimal inhibitory concentration (MIC) was expressed in terms of μg/ml after incubation at 37° C. for 20 hours.
row,MIC,Compound
1,≤ 0.025 µg/mL,"CC(C)(O/N=C(\C(=O)N[C@@H]1C(=O)N2C(C(=O)[O-])=C(C[N+](C)(C)Cc3cc(=O)c(O)c[nH]3)CS[C@H]12)c1nsc(N)n1)C(=O)O [Test compound (1), 7β-[2-(5-Amino-1,2,4-thiadiazol-3-yl)-2-(1-carboxy-1-methylethoxyimino)acetamido]-3-[N,N-dimethyl-N-{(5-hydroxy-4-oxo-1,4-dihydropyridin-2-yl)methyl}ammonio]methyl-3-cephem-4-carboxylate (syn isomer)]"
2,0.05 µg/mL,"CO/N=C(\C(=O)N[C@@H]1C(=O)N2C(C(=O)[O-])=C(C[N+]3(C)CCN(C(=O)c4cc(O)c(O)cn4)CC3)CS[C@H]12)c1nsc(N)n1 [Test compound (2), 7β-[2-(5-Amino-1,2,4-thiadiazol-3-yl)-2-methoxyiminoacetamido]-3-[1-methyl-4-(4,5-dihydroxy-2-pyridylcarbonyl)-1-piperazinio]methyl-3-cephem-4-carboxylate (syn isomer)]"

# — US5401734A, “Cephem compounds” (Fujisawa Phamaceutical Co., Ltd., priority 1988, dated 1995)
